Molecules are shown by their SMILES. Where a chain is given by its changes, count along the chain named.

The values below come from publication PMC11727260, “Free Cholesterol‐Induced Liver Injury in Non‐Alcoholic Fatty Liver Disease: Mechanisms and a Therapeutic Intervention Using Dihydrotanshinone I” (Advanced Science, 2024).

The target in assay [1] is T1, peroxisome proliferator-activated receptor α (PPARα) (Homo sapiens, UniProt Q07869, T283A).
T1 construct: gene PPARA
T1 sequence (Q07869 200-468 T283A): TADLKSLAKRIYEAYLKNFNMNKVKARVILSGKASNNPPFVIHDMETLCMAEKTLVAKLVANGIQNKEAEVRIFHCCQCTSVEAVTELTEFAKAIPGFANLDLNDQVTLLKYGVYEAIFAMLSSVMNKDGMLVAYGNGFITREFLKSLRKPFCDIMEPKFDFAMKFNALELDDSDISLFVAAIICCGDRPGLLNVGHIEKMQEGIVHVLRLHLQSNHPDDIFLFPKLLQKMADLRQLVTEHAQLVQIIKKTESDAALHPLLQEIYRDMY
Description: microscale thermophoresis with purified recombinant EGFP-PPARα LBD T283A. The assay is classed as binding. A general note: In MST a laser heats a spot of the sample, and binding alters the fluorescence response.

Assay [2] has as its target T2, peroxisome proliferator-activated receptor α (PPARα) (Homo sapiens, UniProt Q07869).
T2 construct: gene PPARA
T2 sequence (Q07869 200-468): T1 sequence (Q07869 200-468 T283A) with A84T
In words: microscale thermophoresis with purified recombinant EGFP-PPARα LBD. The assay is classed as binding.

Turning to `Cc1cccc2c3c(ccc12)C1=C(C(=O)C3=O)[C@@H](C)CO1` [DhT, dihydrotanshinone I], the Kd in assay [1] was 32.9 ± 6.1 µM; in assay [2] it was 1.66 ± 0.5 µM.

One may read the Kd as a measure of binding affinity in units of concentration.
